For the experiment, the target named is T1, menin (Homo sapiens, UniProt O00255, T541A).
T1 construct: Menin (a.a. 1-610-6×his tag)
T1 sequence (O00255 with tags, fused parts or gaps T541A): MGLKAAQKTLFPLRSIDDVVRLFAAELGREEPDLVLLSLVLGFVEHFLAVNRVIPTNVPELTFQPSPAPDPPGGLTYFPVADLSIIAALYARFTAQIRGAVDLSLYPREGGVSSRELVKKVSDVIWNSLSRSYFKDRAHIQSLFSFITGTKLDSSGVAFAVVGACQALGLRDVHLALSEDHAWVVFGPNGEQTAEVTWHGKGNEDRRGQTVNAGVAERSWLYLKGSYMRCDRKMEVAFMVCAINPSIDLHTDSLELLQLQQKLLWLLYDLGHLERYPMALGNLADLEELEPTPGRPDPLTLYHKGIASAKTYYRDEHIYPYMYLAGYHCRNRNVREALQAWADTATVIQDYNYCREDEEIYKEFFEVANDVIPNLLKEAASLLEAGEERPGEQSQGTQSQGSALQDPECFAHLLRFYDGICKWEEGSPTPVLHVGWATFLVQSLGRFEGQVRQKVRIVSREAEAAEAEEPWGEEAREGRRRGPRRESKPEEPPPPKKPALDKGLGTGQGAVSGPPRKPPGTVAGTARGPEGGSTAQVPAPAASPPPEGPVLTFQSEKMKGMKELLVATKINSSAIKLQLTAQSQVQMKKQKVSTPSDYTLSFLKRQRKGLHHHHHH
As to the kind of experiment: Menin/MLL homogenous time-resolved fluorescence (HTRF) assay. It counts as binding. As to the method:
2) Menin/MLL Homogenous Time-Resolved Fluorescence (HTRF) Assay
To an untreated, white 384-well microtiter plate was added 40 nL 200× test compound in DMSO and 4 μL 2× terbium chelate-labeled menin (vide infra for preparation) in assay buffer (40 mM Tris HCl, pH 7.5, 50 mM NaCl, 1 mM DTT and 0.05% Pluronic F-127). After incubation of test compound and terbium chelate-labeled menin for 5 min at ambient temperature, 4 μL 2× FITC-MBM1 peptide (FITC-β-alanine-[…]-NH2 (SEQ ID NO: 23)) in assay buffer was added, the microtiter plate centrifuged at 1000 rpm for 1 min and the assay mixtures incubated for 15 min at ambient temperature. The relative amount of menin.FITC-MBM1 complex present in an assay mixture is determined by measuring the homogenous time-resolved fluorescence (HTRF) of the terbium/FITC donor/acceptor fluorphore pair using a BMG Pherastar plate reader (ex. 337 nm/terbium em. 490 nm/FITC em. 520 nm) at ambient temperature. The degree of fluorescence resonance energy transfer (the HTRF value) is expressed as the ratio of the fluorescence emission intensities of the FITC and terbium fluorophores (Fern 520 nm/Fem 490 nm). The final concentrations of reagents in the binding assay are […] terbium chelate-labeled menin (location 2), 75 nM FITC-MBM1 peptide and 0.5% DMSO in assay buffer. Dose-response titrations of test compounds are conducted using an 11 point, three-fold serial dilution scheme, starting typically at 25 μM (location 1) or starting typically at 10 μM (location 2).
Compound potencies were determined by first calculating % inhibition at each compound concentration according to equation 1: % inhibition=((HC−LC)−(HTRF^compound−LC))/(HC−LC))*100 (Eqn 1)
Where LC and HC are the HTRF values of the assay in the presence or absence of a saturating concentration of a compound that competes with FITC-MBM1 for binding to menin, and HTRF^compound is the measured HTRF value in the presence of the test compound. FTC and LC HTRF values represent an average of at least 16 replicates per plate.
Where Bottom and Top are the lower and upper asymptotes of the dose-response curve, respectively, IC50 is the concentration of compound that yields 50% inhibition of signal and h is the Hill coefficient.
Preparation of Terbium cryptate labeling of Menin: Menin (a.a. 1-610-6×his tag (“6×his” disclosed as SEQ ID NO: 3)) was labeled with terbium cryptate as follows. 2 mg of Menin was buffer exchanged into 1× phosphate buffered saline. 16 uM Menin was incubated with 4-fold molar excess NHS-terbium cryptate (Cisbio Bioassays, Bedford, Mass.) for 2 hours at room temperature. The labeled protein was purified away from free label by running the reaction over a Superdex 200 Increase 10/300 GL column at 0.75 ml/min. Peak fractions were collected, aliquoted and frozen at −80° C.
For orientation: In TR-FRET formats the signal depends on donor and acceptor labels being close together.

The mark [1] stands for this setting: location 2, read-out: (2) location 2 Menin HTRF assay (IC50 (nM)).
Where [2] appears, read: location 1, read-out: (2) location 1 Menin HTRF assay (IC50 (nM)).

Read-outs that look alike come from different tables or passages of the source. Bounds are passed on as bounds.

This is an account of results in patent US11396517B1, “Exo-aza spiro inhibitors of menin-MLL interaction” (Janssen Pharmaceutica NV, priority 2017, dated 2022).

Regarding `Cn1c(=O)[nH]c2ccc(NC3CC4(CCN(c5ncnc6sc(CC(F)(F)F)cc56)C4)C3)cc21` (mixture of isomers) [Compound 325], under setting [1], the IC50 turned out to be 1690 nM.

As to `CN1CCN(C(=O)c2ccc(NC3CC4(CCN(c5ncnc6sc(CC(F)(F)F)cc56)C4)C3)cc2)CC1` (mixture of isomers) [Compound 336], the IC50 under setting [1] amounted to 297 nM.

With `N#Cc1cccc(S(=O)(=O)NC2CC3(CCN(c4ncnc5sc(CC(F)(F)F)cc45)C3)C2)c1` (mixture of isomers) [Compound 415], the IC50 under setting [1] is 473 nM.

For the compound `O=S(=O)(NC1CC2(CCN(c3ncnc4sc(CC(F)(F)F)cc34)C2)C1)c1cccc(C(F)(F)F)c1` (mixture of isomers) [Compound 416], the IC50 under setting [1] is 433 nM.

As to `O=S(=O)(NC1CC2(CCN(c3ncnc4sc(CC(F)(F)F)cc34)C2)C1)c1ccc(C(F)(F)F)cc1` (mixture of isomers) [Compound 417], the IC50 under setting [1] amounted to 221 nM.

As for `O=c1cc(NC2CC3(CCN(c4ncnc5sc(CC(F)(F)F)cc45)C3)C2)cc[nH]1` (mixture of isomers) [Compound 424], the IC50 under setting [1] turned out to be 576 nM.

As for `CN(C1CC2(CCN(c3ncnc4sc(CC(F)(F)F)cc34)C2)C1)S(=O)(=O)c1cccc(C#N)c1` (mixture of isomers) [Compound 425], the IC50 under setting [1] amounted to 234 nM.

Regarding `CN(C1CC2(CCN(c3ncnc4sc(CC(F)(F)F)cc34)C2)C1)S(=O)(=O)c1cccc(C(F)(F)F)c1` (mixture of isomers) [Compound 426], the IC50 under setting [1] worked out at 536 nM.

As for `CN(C1CC2(CCN(c3ncnc4sc(CC(F)(F)F)cc34)C2)C1)S(=O)(=O)c1ccc(C(F)(F)F)cc1` (mixture of isomers) [Compound 427], the IC50 under setting [1] was above 10000 nM.

As for `FC(F)(F)Cc1cc2c(N3CC4(CCC(Nc5cn[nH]c5)C4)C3)ncnc2s1` (racemic) [Compound 277], the IC50 under setting [1] was determined as 949 nM.

Take `Cc1nc(N2CC3(CCC(Nc4ccc(CC#N)cc4)C3)C2)c2cc(CC(F)(F)F)sc2n1` (racemic) [Compound 403]: the IC50 under setting [1] came out at 553 nM.

Regarding `FC(F)(F)Cc1cc2c(N3CCC4(CCC(NCc5ccccc5)C4)C3)ncnc2s1` (single isomer, unassigned) [Compound 4], the IC50 under setting [2] amounted to 188 nM and the IC50 under setting [1] is 39.9 nM.

As for `FC(F)(F)Cc1cc2c(N3CCC4(CCC(NCc5ccccc5)C4)C3)ncnc2s1` (single isomer, unassigned) [Compound 6], the IC50 reads like this: under setting [2], 472 nM; under setting [1], 143 nM.

For `N#CCc1ccc(C(=O)NC2CC3(CCN(c4ncnc5sc(CC(F)(F)F)cc45)C3)C2)cc1` (single isomer, unassigned) [Compound 11], under setting [1], the IC50 came to 3760 nM.

In the case of `N#CCc1ccc(C(=O)NC2CC3(CCN(c4ncnc5sc(CC(F)(F)F)cc45)C3)C2)cc1` (single isomer, unassigned) [Compound 12], the IC50 under setting [1] was determined as 730 nM.

Consider `CN(C1CC2(CCN(c3ncnc4sc(CC(F)(F)F)cc34)C2)C1)S(=O)(=O)c1ccccc1` (single isomer, unassigned) [Compound 25], for which, under setting [1], the IC50 stood at 510 nM.

Turning to `CN(C1CC2(CCN(c3ncnc4sc(CC(F)(F)F)cc34)C2)C1)S(=O)(=O)c1ccccc1` (single isomer, unassigned) [Compound 26], under setting [1], the IC50 is 311 nM.

On to `CS(=O)(=O)Nc1ccc(C(=O)NC2CC3(CCN(c4ncnc5sc(CC(F)(F)F)cc45)C3)C2)cc1` (single isomer, unassigned) [Compound 28], for which the IC50 under setting [1] was above 10000 nM.

Regarding `CS(=O)(=O)Nc1ccc(C(=O)NC2CC3(CCN(c4ncnc5sc(CC(F)(F)F)cc45)C3)C2)cc1` (single isomer, unassigned) [Compound 29], the IC50 under setting [1] came to 316 nM.

As for `FC(F)(F)Cc1cc2c(N3CCC4(CCC(Nc5ccccc5)C4)C3)ncnc2s1` (single isomer, unassigned) [Compound 31], the half-maximal inhibitory concentration (IC50) under setting [1] was 241 nM.

As for `FC(F)(F)Cc1cc2c(N3CCC4(CCC(Nc5ccccc5)C4)C3)ncnc2s1` (single isomer, unassigned) [Compound 32], under setting [1], the IC50 stood at 123 nM.

As to `FC(F)(F)Cc1cc2c(N3CCC4(CCC(Nc5ccccc5)C4)C3)ncnc2s1` (single isomer, unassigned) [Compound 34], under setting [1], the IC50 was found to be 338 nM.

For the compound `O=C(NC1CC2(CCN(c3ncnc4sc(CC(F)(F)F)cc34)C2)C1)c1ccccc1` (single isomer, unassigned) [Compound 37], the half-inhibitory concentration (IC50) under setting [1] turned out to be 8340 nM.

Regarding `CNc1nc(N2CCC3(CC(NCc4ccccc4)C3)C2)c2cc(CC(F)(F)F)sc2n1` (single isomer, unassigned) [Compound 62], under setting [1], the half-inhibitory concentration (IC50) came out at 115 nM.

For the compound `CNC(=O)c1ccc(NC2CC3(CCN(c4nc(NC)nc5sc(CC(F)(F)F)cc45)C3)C2)cc1` (single isomer, unassigned) [Compound 65], under setting [1], the IC50 came out at 133 nM.

For `CNC(=O)c1ccc(NC2CC3(CCN(c4ncnc5sc(CC(F)(F)F)cc45)C3)C2)c(Cl)c1` (single isomer, unassigned) [Compound 68], under setting [1], the IC50 was found to be 39.6 nM.

Consider `CNC(=O)c1ccc(NC2CC3(CCN(c4ncnc5sc(CC(F)(F)F)cc45)C3)C2)nc1` (single isomer, unassigned) [Compound 71], for which, under setting [1], the IC50 amounted to 433 nM.

Take `CN(C)CCNC(=O)c1ccc(NC2CC3(CCN(c4ncnc5sc(CC(F)(F)F)cc45)C3)C2)cc1` (single isomer, unassigned) [Compound 74]: under setting [1], the IC50 stood at 60.4 nM.

As for `Cn1c(=O)[nH]c2cc(NC3CC4(CCN(c5ncnc6sc(CC(F)(F)F)cc56)C4)C3)ccc21` (single isomer, unassigned) [Compound 91], the IC50 under setting [1] is 166 nM.

Take `CNC(=O)c1ccc(NC2CCC3(C2)CN(c2ncnc4sc(CC(F)(F)F)cc24)C3)cc1` (single isomer, unassigned) [Compound 97]: the IC50 under setting [1] stood at 213 nM.

With `O=C1CN(C(=O)c2ccc(NC3CC4(CCN(c5ncnc6sc(CC(F)(F)F)cc56)C4)C3)cc2)CCN1` (single isomer, unassigned) [Compound 105], the IC50 under setting [1] turned out to be 3040 nM.

As to `Cc1nc(N2CC3(CC[C@H](NCc4cccc(-c5cc[nH]n5)c4)C3)C2)c2cc(CC(F)(F)F)sc2n1` (single isomer, unassigned) [Compound 118], the IC50 under setting [1] amounted to 256 nM.

`FC(F)(F)Cc1cc2c(N3CCC4(CC(Nc5ccccc5)C4)C3)ncnc2s1` (single isomer, unassigned) [Compound 150]: under setting [1], the IC50 was found to be 370 nM.

On to `FC(F)(F)Cc1cc2c(N3CCC4(CC(Nc5cccnc5)C4)C3)ncnc2s1` (single isomer, unassigned) [Compound 152], for which the IC50 under setting [1] is 288 nM.

For `N#CC1(c2ccc(NC3CC4(CCN(c5ncnc6sc(CC(F)(F)F)cc56)C4)C3)cc2)CC1` (single isomer, unassigned) [Compound 171], the IC50 under setting [1] stood at 265 nM.

As to `CS(=O)(=O)N1CCN(C(=O)c2ccc(NC3CC4(CCN(c5ncnc6sc(CC(F)(F)F)cc56)C4)C3)cc2)CC1` (single isomer, unassigned) [Compound 179], the IC50 under setting [1] is 2900 nM.

On to `COC1CCN(C(=O)c2ccc(NC3CC4(CCN(c5ncnc6sc(CC(F)(F)F)cc56)C4)C3)cc2)CC1` (single isomer, unassigned) [Compound 184], for which, under setting [1], the IC50 was 3430 nM.

Regarding `O=C(c1ccc(NC2CC3(CCN(c4ncnc5sc(CC(F)(F)F)cc45)C3)C2)cc1)N1CCNCC1` (single isomer, unassigned) [Compound 188], the IC50 under setting [1] turned out to be 200 nM.

As usually defined, the IC50 is the concentration that inhibits the measured activity by half.
